Data from patent publication US20260053811A1, “METHODS OF TREATING HYPERTENSION IN OBESE SUBJECTS” (Mineralys Therapeutics, Inc., priority 2022, published 2026).
Where two headings read alike, the source gives them in different places.

Experiments:
Type in all cases: in vivo, human
[1] = system: hypertensive subjects; test: Vital signs, physical examination, ECG parameters; conditions: Parts 1 and 2
Source text: (§1) Safety endpoints of this study are: • (a) Incidence and severity of all spontaneously reported adverse events (AEs) • (b) Changes in vital signs (standing SBP, standing DBP, body temperature, heart rate, and respiratory rate) • (c) Changes in electrocardiogram parameters (including cardiac intervals: PR, QRS, QT, and corrected QT interval using Fridericia's formula) • (d) Changes in clinical laboratory assessments (hematology, chemistry, coagulation, and urinalysis) • (e) Change in office-measured SBP from Study Week 8 (end-of-treatment period to end of follow up (i.e. end of Study Week 12 for Part 1 and end of Study 10 for Part 2).

[2] = system: hypertensive subjects; test: Clinical laboratory evaluations (chemistry incl. serum creatinine, hematology, coagulation, urinalysis)
Source text: as §1

[3] = Pharmacokinetics (plasma Cmax, AUC, Tmax, t1/2, trough concentrations); conditions: for Trough Plasma Concentration, Median / concentration at 7 day: Day 7; for concentration at 7 day / concentration at 28 day / concentration at 56 day / AUC(0-t) / Cmax: human, plasma, oral; for concentration at 56 day: Day 56
Source text: Pharmacokinetic endpoints of this study are PK parameters, including, of area under the plasma concentration versus time curve (AUC), maximum plasma concentration (Cmax), time to maximum concentration (Tmax), and half-life (t1/2) will be summarized descriptively for Randomization (baseline) and Study Weeks 1, 4, and 8
PK/PD Analysis Set includes all subjects in the SAF who have sufficient data available for the analysis of pharmacokinetic and pharmacodynamic measurements. In the analyses based on PKPD, subjects will be analyzed according to the actual treatment received.

[4] = 12.5 mg, 12.5 mg BID, read-out: Trough Plasma Concentration, Mean (SD)
[5] = 12.5 mg, 12.5 mg QD, read-out: Trough Plasma Concentration, Mean (SD)
[6] = 25 mg, 25 mg BID, read-out: Trough Plasma Concentration, Mean (SD)
[7] = 50 mg, 50 mg QD, read-out: Trough Plasma Concentration, Mean (SD)
[8] = 100 mg, 100 mg QD Part 1, read-out: Trough Plasma Concentration, Mean (SD)
[9] = 100 mg, 100 mg QD Part 1, read-out: Trough Plasma Concentration, Median
[10] = 100 mg, 100 mg QD Part 2, read-out: Trough Plasma Concentration, Mean (SD)

## CC(=O)N[C@H]1CC[C@H](NC(=O)CN2CCN(c3nncc(-c4ccc(C)cc4)n3)CC2)CC1 [Compound A HBr]
[1]
  Vital signs, physical examination, ECG parameters: no notable findings
[2]; Part 1 or Part 2
  Clinical laboratory parameters (chemistry, hematology, coagulation, urinalysis), change from baseline to Week 8: no meaningful changes
[2]; active treatment cohorts, Parts 1 and 2
  Serum creatinine levels compared with placebo: increased
[3]; 12.5 mg BID
  Trough Plasma Concentration, Median: 26.1 ng/mL
[3]; 12.5 mg QD
  Trough Plasma Concentration, Median: 5.52 ng/mL
[3]; 25 mg BID
  Trough Plasma Concentration, Median: 52 ng/mL
[3]; 50 mg QD
  Trough Plasma Concentration, Median: 12.1 ng/mL
[3]; [4]
  concentration at 7 day: 52.3 ng/mL
  concentration at 56 day: 40.4 ng/mL
[3]; [5]
  concentration at 7 day: 11.6 ng/mL
  concentration at 56 day: 39.9 ng/mL
[3]; 12.5 mg, Day 28, 12.5 mg BID, read-out: Trough Plasma Concentration, Geo Mean
  concentration at 28 day: 10.7 ng/mL
[3]; 12.5 mg, Day 28, 12.5 mg BID, read-out: Trough Plasma Concentration, Mean (SD)
  concentration at 28 day: 33.4 ng/mL
[3]; 12.5 mg, Day 28, 12.5 mg BID, read-out: Trough Plasma Concentration, Median
  concentration at 28 day: 27.3 ng/mL
[3]; 12.5 mg, Day 28, 12.5 mg QD, read-out: Trough Plasma Concentration, Geo Mean
  concentration at 28 day: 5.77 ng/mL
[3]; 12.5 mg, Day 28, 12.5 mg QD, read-out: Trough Plasma Concentration, Mean (SD)
  concentration at 28 day: 7.91 ng/mL
[3]; 12.5 mg, Day 28, 12.5 mg QD, read-out: Trough Plasma Concentration, Median
  concentration at 28 day: 4.1 ng/mL
[3]; 12.5 mg, 12.5 mg BID, read-out: Trough Plasma Concentration, Geometric Mean
  concentration at 56 day: 18.5 ng/mL
[3]; 12.5 mg, 12.5 mg BID, read-out: Trough Plasma Concentration, Median
  concentration at 56 day: 21.6 ng/mL
[3]; 12.5 mg, 12.5 mg QD, read-out: Trough Plasma Concentration, Geometric Mean
  concentration at 56 day: 22.1 ng/mL
[3]; 12.5 mg, 12.5 mg QD, read-out: Trough Plasma Concentration, Median
  concentration at 56 day: 7.6 ng/mL
[3]; 12.5 mg, steady state Day 28, 12.5 mg BID, read-out: AUC0-24, Geo Mean
  AUC(0-t): 940 ng·h/mL
[3]; 12.5 mg, steady state Day 28, 12.5 mg BID, read-out: AUC0-24, Mean (SD)
  AUC(0-t): 992 ng·h/mL
[3]; 12.5 mg, steady state Day 28, 12.5 mg BID, read-out: AUC0-24, Median
  AUC(0-t): 922 ng·h/mL
[3]; 12.5 mg, steady state Day 28, 12.5 mg BID, read-out: Cmax, Median
  Cmax: 137 ng/mL
[3]; 12.5 mg, steady state Day 28, 12.5 mg QD, read-out: AUC0-24, Geo Mean
  AUC(0-t): 726 ng·h/mL
[3]; 12.5 mg, steady state Day 28, 12.5 mg QD, read-out: AUC0-24, Mean (SD)
  AUC(0-t): 1020 ng·h/mL
[3]; 12.5 mg, steady state Day 28, 12.5 mg QD, read-out: AUC0-24, Median
  AUC(0-t): 498 ng·h/mL
[3]; 12.5 mg, steady state Day 28, 12.5 mg QD, read-out: Cmax, Geo Mean
  Cmax: 120 ng/mL
[3]; 12.5 mg, steady state Day 28, 12.5 mg QD, read-out: Cmax, Mean (SD)
  Cmax: 153 ng/mL
[3]; 12.5 mg, steady state Day 28, 12.5 mg QD, read-out: Cmax, Median
  Cmax: 94.9 ng/mL
[3]; [6]
  concentration at 7 day: 94.2 ng/mL
  concentration at 56 day: 104 ng/mL
[3]; 25 mg, Day 28, 25 mg BID, read-out: Trough Plasma Concentration, Geo Mean
  concentration at 28 day: 62.1 ng/mL
[3]; 25 mg, Day 28, 25 mg BID, read-out: Trough Plasma Concentration, Mean (SD)
  concentration at 28 day: 109 ng/mL
[3]; 25 mg, Day 28, 25 mg BID, read-out: Trough Plasma Concentration, Median
  concentration at 28 day: 56.3 ng/mL
[3]; 25 mg, 25 mg BID, read-out: Trough Plasma Concentration, Geometric Mean
  concentration at 56 day: 46 ng/mL
[3]; 25 mg, 25 mg BID, read-out: Trough Plasma Concentration, Median
  concentration at 56 day: 32.3 ng/mL
[3]; 25 mg, steady state Day 28, 25 mg BID, read-out: AUC0-24, Geo Mean
  AUC(0-t): 1640 ng·h/mL
[3]; 25 mg, steady state Day 28, 25 mg BID, read-out: AUC0-24, Mean (SD)
  AUC(0-t): 1760 ng·h/mL
[3]; 25 mg, steady state Day 28, 25 mg BID, read-out: AUC0-24, Median
  AUC(0-t): 1670 ng·h/mL
[3]; 25 mg, steady state Day 28, 25 mg BID, read-out: Cmax, Geo Mean
  Cmax: 325 ng/mL
[3]; 25 mg, steady state Day 28, 25 mg BID, read-out: Cmax, Median
  Cmax: 335 ng/mL
[3]; [7]
  concentration at 7 day: 93.1 ng/mL
  concentration at 56 day: 155 ng/mL
[3]; 50 mg, Day 28, 50 mg QD, read-out: Trough Plasma Concentration, Geo Mean
  concentration at 28 day: 46.8 ng/mL
[3]; 50 mg, Day 28, 50 mg QD, read-out: Trough Plasma Concentration, Mean (SD)
  concentration at 28 day: 87.4 ng/mL
[3]; 50 mg, Day 28, 50 mg QD, read-out: Trough Plasma Concentration, Median
  concentration at 28 day: 20.9 ng/mL
[3]; 50 mg, 50 mg QD, read-out: Trough Plasma Concentration, Geometric Mean
  concentration at 56 day: 38.1 ng/mL
[3]; 50 mg, 50 mg QD, read-out: Trough Plasma Concentration, Median
  concentration at 56 day: 18 ng/mL
[3]; 50 mg, steady state Day 28, 50 mg QD, read-out: AUC0-24, Geo Mean
  AUC(0-t): 3230 ng·h/mL
[3]; 50 mg, steady state Day 28, 50 mg QD, read-out: AUC0-24, Mean (SD)
  AUC(0-t): 3390 ng·h/mL
[3]; 50 mg, steady state Day 28, 50 mg QD, read-out: AUC0-24, Median
  AUC(0-t): 3320 ng·h/mL
[3]; 50 mg, steady state Day 28, 50 mg QD, read-out: Cmax, Geo Mean
  Cmax: 477 ng/mL
[3]; 50 mg, steady state Day 28, 50 mg QD, read-out: Cmax, Mean (SD)
  Cmax: 518 ng/mL
[3]; 50 mg, steady state Day 28, 50 mg QD, read-out: Cmax, Median
  Cmax: 488 ng/mL
[3]; 100 mg, 100 mg QD, Cohort 1, Day 28, read-out: Steady-state AUC0-24
  AUC(0-t): 14900 ng·h/mL
[3]; 100 mg, 100 mg QD, Cohort 1, Day 28, read-out: Steady-state Cmax
  Cmax: 1620 ng/mL
[3]; 100 mg, 100 mg QD, Cohort 2, Day 28, read-out: Steady-state AUC0-24
  AUC(0-t): 7480 ng·h/mL
[3]; 100 mg, 100 mg QD, Cohort 2, Day 28, read-out: Steady-state Cmax
  Cmax: 1360 ng/mL
[3]; 100 mg, 100 mg QD, Day 28, read-out: Steady-state AUC0-24, mean of Cohort 1 and Cohort 2
  AUC(0-t): ~11200 ng·h/mL
[3]; 100 mg, 100 mg QD, Day 28, read-out: Steady-state Cmax, mean of Cohort 1 and Cohort 2
  Cmax: ~1490 ng/mL
[3]; [8]
  concentration at 7 day: 299 ng/mL
  concentration at 56 day: 258 ng/mL
[3]; [9]
  concentration at 7 day: 28.2 ng/mL
  concentration at 56 day: 30.4 ng/mL
[3]; [10]
  concentration at 7 day: 151 ng/mL
  concentration at 56 day: 23.2 ng/mL
[3]; 100 mg, 100 mg QD Part 2, read-out: Trough Plasma Concentration, Median
  concentration at 7 day: 29.8 ng/mL
[3]; 100 mg, Day 28, 100 mg QD Part 1, read-out: Trough Plasma Concentration, Geo Mean
  concentration at 28 day: 50.7 ng/mL
[3]; 100 mg, Day 28, 100 mg QD Part 1, read-out: Trough Plasma Concentration, Mean (SD)
  concentration at 28 day: 303 ng/mL
[3]; 100 mg, Day 28, 100 mg QD Part 1, read-out: Trough Plasma Concentration, Median
  concentration at 28 day: 38.6 ng/mL
[3]; 100 mg, Day 28, 100 mg QD Part 2, read-out: Trough Plasma Concentration, Geo Mean
  concentration at 28 day: 12.9 ng/mL
[3]; 100 mg, Day 28, 100 mg QD Part 2, read-out: Trough Plasma Concentration, Mean (SD)
  concentration at 28 day: 26.4 ng/mL
[3]; 100 mg, Day 28, 100 mg QD Part 2, read-out: Trough Plasma Concentration, Median
  concentration at 28 day: 19.9 ng/mL
[3]; 100 mg, 100 mg QD Part 1, read-out: Trough Plasma Concentration, Geometric Mean
  concentration at 56 day: 72.1 ng/mL
[3]; 100 mg, 100 mg QD Part 2, read-out: Trough Plasma Concentration, Geometric Mean
  concentration at 56 day: 20.3 ng/mL
